Results as given in ChEMBL document CHEMBL4038288, “Novel quinoxalinyl chalcone hybrid scaffolds as enoyl ACP reductase inhibitors: Synthesis, molecular docking and biological evaluation” (Bioorg Med Chem Lett, 2017).
≈ marks a conversion by molar mass, not a printed value. Calls of active or inactive are those of the source. No cut-off for these calls is given here.

How the values were obtained:
Staphylococcus aureus = assay: Antimicrobial activity against Staphylococcus aureus after 18 to 24 hrs by agar well-diffusion method; format: functional
MCF7 [1] = assay: Anticancer activity against human MCF7 cells after 48 hrs by MTT assay; format: functional, cell-based
[2] = target: T1, Enoyl-[acyl-carrier-protein] reductase [NADH] (Mycobacterium tuberculosis) (UniProt P9WGR1); assay: Inhibition of Mycobacterium tuberculosis H37Rv enoyl ACP reductase assessed as reduction in bacterial growth after 5 days by microplate alamar blue assay
T1 sequence (whole entry): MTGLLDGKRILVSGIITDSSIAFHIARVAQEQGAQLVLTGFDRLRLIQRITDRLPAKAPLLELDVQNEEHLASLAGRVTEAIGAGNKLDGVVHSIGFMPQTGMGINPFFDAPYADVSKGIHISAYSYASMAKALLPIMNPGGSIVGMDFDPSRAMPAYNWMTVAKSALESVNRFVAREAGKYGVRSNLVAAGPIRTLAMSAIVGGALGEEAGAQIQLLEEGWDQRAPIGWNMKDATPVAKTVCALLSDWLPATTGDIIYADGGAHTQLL

MCF7 [3] = assay: Cytotoxicity against human MCF7 cells assessed as cell lysis at 40 ug/ml after 48 hrs by MTT assay; format: functional
MCF7 [4] = assay: Cytotoxicity against human MCF7 cells assessed as cell lysis at 30 ug/ml after 48 hrs by MTT assay; format: functional
MCF7 [5] = assay: Cytotoxicity against human MCF7 cells assessed as cell lysis at 10 ug/ml after 48 hrs by MTT assay; format: functional, cell-based
Escherichia coli = assay: Antimicrobial activity against Escherichia coli after 18 to 24 hrs by agar well-diffusion method; format: functional
Candida albicans = assay: Antimicrobial activity against Candida albicans after 18 to 24 hrs by agar well-diffusion method; format: functional
MCF7 [6] = assay: Cytotoxicity against human MCF7 cells assessed as cell lysis at 20 ug/ml after 48 hrs by MTT assay; format: functional, cell-based
MCF7 [7] = assay: Cytotoxicity against human MCF7 cells assessed as cell lysis at 50 ug/ml after 48 hrs by MTT assay; format: functional
MCF7 [8] = assay: Cytotoxicity against human MCF7 cells assessed as cell lysis after 48 hrs by MTT assay; format: functional

SMILES	MIC (Staphylococcus aureus) [mg/L]	IC50 (MCF7 [1])	MIC [2] [mg/L]	Activity (MCF7 [3])	Activity (MCF7 [4])	Activity (MCF7 [5])	MIC (Escherichia coli) [mg/L]	MIC (Candida albicans) [mg/L]	Activity (MCF7 [6])	Activity (MCF7 [7])	Activity (MCF7 [8]) [%]
O=C(/C=C/c1cnc2ccccc2n1)c1ccc(F)cc1	75 (≈ 270 µM)	50 mg/L (≈ 180 µM)	25 (≈ 89.8 µM)	inactive	inactive	inactive	25 (≈ 89.8 µM)	25 (≈ 89.8 µM)	inactive	inactive	
OC(Cn1cncn1)(Cn1cncn1)c1ccc(F)cc1F [FLUCONAZOLE]								16 (≈ 52.2 µM)			
O=C(/C=C/c1cnc2ccccc2n1)c1ccc([N+](=O)[O-])cc1	50 (≈ 164 µM)		25 (≈ 81.9 µM)				25 (≈ 81.9 µM)	50 (≈ 164 µM)			
O=C(/C=C/c1cnc2ccccc2n1)c1ccc(Cl)cc1	25 (≈ 84.8 µM)		25 (≈ 84.8 µM)				10 (≈ 33.9 µM)	25 (≈ 84.8 µM)			
COc1ccc(C(=O)/C=C/c2cnc3ccccc3n2)cc1	50 (≈ 172 µM)		25 (≈ 86.1 µM)				25 (≈ 86.1 µM)	25 (≈ 86.1 µM)			
O=C(/C=C/c1cnc2ccccc2n1)c1cccc(Br)c1	25 (≈ 73.7 µM)		25 (≈ 73.7 µM)				5 (≈ 14.7 µM)	25 (≈ 73.7 µM)			
O=C(/C=C/c1cnc2ccccc2n1)c1ccc(O)cc1	5 (≈ 18.1 µM)		3.12 (≈ 11.3 µM)	inactive	inactive	inactive	5 (≈ 18.1 µM)		inactive	inactive	
NC(=O)c1cnccn1			3.12 (≈ 25.3 µM)								
O=C(/C=C/c1cnc2ccccc2n1)c1ccncc1	50 (≈ 191 µM)		6.25 (≈ 23.9 µM)				25 (≈ 95.7 µM)	50 (≈ 191 µM)			
O=C(/C=C/c1cnc2ccccc2n1)c1cccc([N+](=O)[O-])c1	50 (≈ 164 µM)		25 (≈ 81.9 µM)				25 (≈ 81.9 µM)	25 (≈ 81.9 µM)			
Nc1ccc(C(=O)/C=C/c2cnc3ccccc3n2)cc1	50 (≈ 182 µM)	25 mg/L (≈ 90.8 µM)	25 (≈ 90.8 µM)	50%	50%	Active	25 (≈ 90.8 µM)	25 (≈ 90.8 µM)	Active	50%	
Nc1cccc(C(=O)/C=C/c2cnc3ccccc3n2)c1	50 (≈ 182 µM)		25 (≈ 90.8 µM)				25 (≈ 90.8 µM)	25 (≈ 90.8 µM)			
CN[C@@H]1[C@H](O[C@H]2[C@H](O[C@H]3[C@H](O)[C@@H](O)[C@H](N=C(N)N)[C@@H](O)[C@@H]3N=C(N)N)O[C@@H](C)[C@]2(O)C=O)O[C@@H](CO)[C@H](O)[C@H]1O			6.25 (≈ 10.7 µM)								
O=C(/C=C/c1cnc2ccccc2n1)c1ccc2ccccc2c1	25 (≈ 80.6 µM)		25 (≈ 80.6 µM)				25 (≈ 80.6 µM)	25 (≈ 80.6 µM)			
O=C(/C=C/c1cnc2ccccc2n1)c1ccccc1	50 (≈ 192 µM)		25 (≈ 96 µM)				50 (≈ 192 µM)	25 (≈ 96 µM)			
COc1cccc2c1C(=O)c1c(O)c3c(c(O)c1C2=O)C[C@@](O)(C(=O)CO)C[C@@H]3O[C@H]1C[C@H](N)[C@H](O)[C@H](C)O1 [DOXORUBICIN]		5 to 7.5 µg									50
O=C(/C=C/c1cnc2ccccc2n1)c1ccc(Br)cc1	75 (≈ 221 µM)		50 (≈ 147 µM)				25 (≈ 73.7 µM)	75 (≈ 221 µM)			
O=C(O)c1cn(C2CC2)c2cc(N3CCNCC3)c(F)cc2c1=O [CIPROFLOXACIN]	2 (≈ 6.04 µM)		3.12 (≈ 9.42 µM)								
O=C(/C=C/c1cnc2ccccc2n1)c1cccc(O)c1	10 (≈ 36.2 µM)		3.12 (≈ 11.3 µM)				5 (≈ 18.1 µM)	10 (≈ 36.2 µM)			
